Source: US7544698B2, “Indoles and benzoimidazoles as modulators of the histamine H4 receptor” (Janssen Pharmaceutica, N.V., priority 2006, dated 2009)
Structures can show the parent of a compound that is named as a salt.

Each compound was assayed against T1, human histamine H4 receptor (Homo sapiens, UniProt Q9H3N8) (assay: Binding Assay on Recombinant Human Histamine H4 Receptor (3H-histamine competition, membranes of transfected SK-N-MC or COS7 cells)). Conditions: competition with 3H-histamine (5 nM ligand, KD 5 nM), Cheng-Prusoff; mean of results; > = solubility limit or highest concentration tested.
T1 construct: expressed in transfected cells; host or cells: SK-N-MC cells or COS7 cells, transiently transfected with pH4R; cell membranes
Experimental: Binding Assay on Recombinant Human Histamine H4 Receptor
SK-N-MC cells or COS7 cells were transiently transfected with pH4R and grown in 150 cm^2 tissue culture dishes. Cells were washed with saline solution, scraped with a cell scraper and collected by centrifugation (1000 rpm, 5 min). Cell membranes were prepared by homogenization of the cell pellet in 20 mM Tris-HCl with a polytron tissue homogenizer for 10 sec at high speed. Homogenate was centrifuged at 1000 rpm for 5 min at 4° C. The supernatant was then collected and centrifuged at 20,000×g for 25 min at 4° C. The final pellet was resuspended in 50 mM Tris-HCl. […] Incubation occurred at room temperature for 45 min. Membranes were harvested by rapid filtration over Whatman GF/C filters and washed 4 times with ice-cold 50 mM Tris HCl. Filters were then dried, mixed with scintillant and counted for radioactivity. SK-N-MC or COS7 cells expressing human histamine H4 receptor were used to measure the affinity of binding of other compounds and their ability to displace ^3H-ligand binding by incubating the above-described reaction in the presence of various concentrations of inhibitor or compound to be tested.

Row | Ki [nM] | SMILES
1 | 53 | CN[C@@H]1CCN(C(=O)c2cc3cc(Cl)ccc3[nH]2)C1 [Example 8, (R)-(5-Chloro-1H-indol-2-yl)-(3-methylamino-pyrrolidin-1-yl)-methanone]
2 | > 10000 | O=C(c1cc2ccccc2[nH]1)N1C[C@@H]2CCCN[C@@H]2C1 [Example 6, (S,S)-(1H-Indol-2-yl)-(octahydro-pyrrolo[3,4-b]pyridin-6-yl)-methanone trifluoroacetic acid salt]
3 | 680 | CN[C@@H]1CCN(C(=O)c2cc3c(F)cc(F)cc3[nH]2)C1 [Example 23, (R)-(4,6-Difluoro-1H-indol-2-yl)-(3-methylamino-pyrrolidin-1-yl)-methanone]
4 | 560 | CN1CCC[C@@H]2CN(C(=O)c3cc4ccccc4[nH]3)C[C@@H]21 (relative stereo) [Example 27, cis-(1H-Indol-2-yl)-(1-methyl-octahydro-pyrrolo[3,4-b]pyridin-6-yl)-methanone]
5 | 540 | CN[C@H]1CCN(C(=O)c2cc3cc(Cl)ccc3[nH]2)C1 [Example 9, (S)-(5-Chloro-1H-indol-2-yl)-(3-methylamino-pyrrolidin-1-yl)-methanone]
6 | 160 | CN[C@@H]1CCN(C(=O)c2cc3ccccc3[nH]2)C1 [Example 4, (R)-(1H-Indol-2-yl)-(3-methylamino-pyrrolidin-1-yl)-methanone hydrochloride salt]
7 | > 5000 | CN[C@H]1CCN(C(=O)c2cc3c(F)cc(F)cc3[nH]2)C1 [Example 22, (S)-(4,6-Difluoro-1H-indol-2-yl)-(3-methylamino-pyrrolidin-1-yl)-methanone]
8 | 190 | NC1CCN(C(=O)c2cc3cc(Cl)ccc3[nH]2)C1 (centres unmarked) [Example 24, (3-Amino-pyrrolidin-1-yl)-(5-chloro-1H-indol-2-yl)-methanone hydrochloride salt]
9 | > 10000 | CN[C@H]1CCN(C(=O)c2cc3cc(C)ccc3[nH]2)C1 [Example 20, (S)-(3-Methylamino-pyrrolidin-1-yl)-(5-methyl-1H-indol-2-yl)-methanone]
10 | 3200 | CN1C[C@@H]2C[C@H]1CN2C(=O)c1cc2ccccc2[nH]1 [Example 2, (S,S)-(1H-Indol-2-yl)-(5-methyl-2,5-diaza-bicyclo[2.2.1]hept-2-yl)-methanone]
11 | 2000 | CNC1CCN(C(=O)c2nc3ccccc3[nH]2)C1 (centres unmarked) [Example 30, (1H-Benzoimidazol-2-yl)-(3-methylamino-pyrrolidin-1-yl)-methanone hydrochloride salt]
12 | 280 | CN[C@@H]1CCN(C(=O)c2cc3cc(C)ccc3[nH]2)C1 [Example 21, (R)-(3-Methylamino-pyrrolidin-1-yl)-(5-methyl-1H-indol-2-yl)-methanone]
13 | > 10000 | CN[C@H]1CCN(C(=O)c2cc3cccc(C)c3[nH]2)C1 [Example 18, (S)-(3-Methylamino-pyrrolidin-1-yl)-(7-methyl-1H-indol-2-yl)-methanone]
14 | 430 | CNC1CCN(C(=O)c2cc3ccccc3[nH]2)C1 (centres unmarked) [Example 3, (1H-Indol-2-yl)-(3-methylamino-pyrrolidin-1-yl)-methanone trifluoroacetic acid salt]
15 | 38 | CN[C@@H]1CCN(C(=O)c2cc3cc(F)ccc3[nH]2)C1 [Example 17, (R)-(5-Fluoro-1H-indol-2-yl)-(3-methylamino-pyrrolidin-1-yl)-methanone]
16 | 680 | CN[C@H]1CCN(C(=O)c2cc3cc(F)ccc3[nH]2)C1 [Example 16, (S)-(5-Fluoro-1H-indol-2-yl)-(3-methylamino-pyrrolidin-1-yl)-methanone]
17 | 9000 | CN(C)C1CCN(C(=O)c2cc3ccccc3[nH]2)C1 (centres unmarked) [Example 26, (3-Dimethylamino-pyrrolidin-1-yl)-(1H-indol-2-yl)-methanone]
18 | 150 | CN[C@@H]1CCN(C(=O)c2cc3cccc(C)c3[nH]2)C1 [Example 19, (R)-(3-Methylamino-pyrrolidin-1-yl)-(7-methyl-1H-indol-2-yl)-methanone]
19 | 40 | O=C(c1cc2ccccc2[nH]1)N1C[C@H]2CCCN[C@H]2C1 (relative stereo) [Example 5, cis-(1H-Indol-2-yl)-(octahydro-pyrrolo[3,4-b]pyridin-6-yl)-methanone trifluoroacetic acid salt]

The remaining lines, values behind:

Row | SMILES | Ki [nM]
20 | O=C(c1cc2cc(Cl)ccc2[nH]1)N1C[C@@H]2CCCN[C@@H]2C1 [Example 12, (S,S)-(5-Chloro-1H-indol-2-yl)-(octahydro-pyrrolo[3,4-b]pyridin-6-yl)-methanone hydrochloride salt] | > 10000
21 | O=C(c1cc2cc(F)ccc2[nH]1)N1C[C@H]2CCCN[C@H]2C1 (relative stereo) [Example 13, cis-(5-Fluoro-1H-indol-2-yl)-(octahydro-pyrrolo[3,4-b]pyridin-6-yl)-methanone hydrochloride salt] | 28
22 | CN1CCC[C@@H]2CN(C(=O)c3cc4cc(Cl)ccc4[nH]3)C[C@@H]21 (relative stereo) [Example 28, cis-(5-Chloro-1H-indol-2-yl)-(1-methyl-octahydro-pyrrolo[3,4-b]pyridin-6-yl)-methanone] | 240
23 | O=C(c1cc2ccccc2[nH]1)N1C[C@@H]2C[C@H]1CN2 [Example 1, (S,S)-(2,5-Diaza-bicyclo[2.2.1]hept-2-yl)-(1H-indol-2-yl)-methanone hydrochloride salt] | 1110
24 | CN(C)C1CCN(C(=O)c2nc3ccccc3[nH]2)C1 (centres unmarked) [Example 31, (1H-Benzoimidazol-2-yl)-(3-dimethylamino-pyrrolidin-1-yl)-methanone] | 8200
25 | Cc1ccc2[nH]c(C(=O)N3C[C@H]4CCCN[C@H]4C3)cc2c1 (relative stereo) [Example 29, cis-(5-Methyl-1H-indol-2-yl)-(octahydro-pyrrolo[3,4-b]pyridin-6-yl)-methanone hydrochloride salt] | 41
26 | O=C(c1cc2c(F)cc(F)cc2[nH]1)N1C[C@H]2CCCN[C@H]2C1 (relative stereo) [Example 15, cis-(4,6-Difluoro-1H-indol-2-yl)-(octahydro-pyrrolo[3,4-b]pyridin-6-yl)-methanone hydrochloride salt] | 220
27 | CN(C)C1CCN(C(=O)c2cc3cc(Cl)ccc3[nH]2)C1 (centres unmarked) [Example 25, (5-Chloro-1H-indol-2-yl)-(3-dimethylamino-pyrrolidin-1-yl)-methanone] | 1160
28 | O=C(c1cc2cccc([N+](=O)[O-])c2[nH]1)N1C[C@H]2CCCN[C@H]2C1 (relative stereo) [Example 14, cis-(7-Nitro-1H-indol-2-yl)-(octahydro-pyrrolo[3,4-b]pyridin-6-yl)-methanone hydrochloride salt] | > 10000
29 | O=C(c1cc2cc(Cl)ccc2[nH]1)N1C[C@H]2CCCN[C@H]2C1 (relative stereo) [Example 10, cis-(5-Chloro-1H-indol-2-yl)-(octahydro-pyrrolo[3,4-b]pyridin-6-yl)-methanone] | 8
30 | O=C(c1cc2cc(Cl)ccc2[nH]1)N1C[C@H]2CCCN[C@H]2C1 [Example 11, (R,R)-(5-Chloro-1H-indol-2-yl)-(octahydro-pyrrolo[3,4-b]pyridin-6-yl)-methanone hydrochloride salt] | 27
31 | O=C(c1nc2cc(Cl)ccc2[nH]1)N1C[C@H]2CCCN[C@H]2C1 (relative stereo) [Example 7, cis-(5-Chloro-1H-benzoimidazol-2-yl)-(octahydro-pyrrolo[3,4-b]pyridin-6-yl)-methanone] | 20
32 | O=C(c1cc2cc(Cl)ccc2[nH]1)N1C[C@@H]2CCCN[C@@H]2C1 [Example 12A, (S,S)-(5-Chloro-1H-indol-2-yl)-(octahydro-pyrrolo[3,4-b]pyridin-6-yl)-methanone] | 180
